Tests used:
GFP+/Luc+ MM1S cells = test: In vivo homing model, iv injected transfected MM1S cells plus weekly iv miRNA; set-up: species or system NOD-SCID mice; conditions: for tumor burden (bioluminescence imaging): 5 wk post-injection, 10 μg iv weekly for 4 wk, vs Scr; for bone marrow engraftment of MM1s (human CD-138+ cells by FACS): 35 days after injection, Scr-treated mice ~25±15%
Description: FIG. 7C: In vivo confocal imaging. 8×10^6GFP+/Luc+ MM1s cells were transfected using either pre-miRNA-192, miR-194, miR-215 and Scr RNA oligos and then iv injected into mice immediately after transfection. After 1 wk the mice were miRNAs iv injected (10 ug) once a wk for 4 wk and the bioluminescence intensity was assessed before every injection.
FIG. 7D: Representative bioluminescence imaging (BLD after 5 wk from the injection.
FIG. 7E: Bone marrow cells from the mice used for the experiment were isolated and human CD-138 positive cells (engrafted cells) were detected using anti-CD-138 antibody by flow cytometry (P2 fraction).
As shown in FIG. 7B and FIG. 21C, IGF-1 (50 ng/ml) stimulated migration of MM cells, MM1s and RPMI-8226. To further examine the role of miRNA-192, miR-215 and miR-194 in MM cells, the inventors investigated the effect of these miRNAs on migration in vivo, using a homing model (Roccaro et al., Blood, 113:6669-6680 (2009)). Nine NOD-SCID mice (for each group) were intravenously injected with 8×10^6 of pre-miRNA-192-, -194 and -215 or Scr probe-transfected GFP^+/Lue^+ MM1S cells. One wk later, mice were iv-injected every week for 4 wk with an individual miRNA or Scr dissolved in PBS (10 μg for each mouse).
Mice were injected with 75 mg/kg of Luciferin (Xenogen, Hopkington, Mass.), and tumor growth was detected by bioluminescence 10 min after the injection. The home-built bioluminescence system used an electron multiplying CCD (Andor Technology Limited, Belfast, United Kingdom) with an exposure time of 30 sec, and an electron multiplication gain of 500 voltage gain×200, 5-by-5 binning, and with background subtraction. Images were analyzed using Image-J software (National Institutes of Health, Bethesda, Md.).
Animal studies were performed according to institutional guidelines. For the sub-cutaneous engraftment model 8 wk old male athymic nu/nu mice (Charles River Laboratories, Wilmington, Mass.) were maintained in accordance with IACUC procedures and guidelines. 8×10^6 of GFP/Luc+MM1s cells were suspended in 0.10 ml of extracellular matrix gel (BD Biosciences) and the mixture was injected subcutaneously into the right flank. […] Measurements of xenograft growth were performed, and tumor volume was estimated using the formula 4/3 a (L*W*H/8). Tumor size was assessed by digital caliper. […] Tumor size was assessed every 7 days by, bioluminescence images. Thirty-five days after injection, mice were analyzed by bioluminescence images and then sacrificed. MM1s bone marrow isolated cells were stained with anti-human CD-138 antibody (BD) and analyzed by FACS analysis. Statistical significance of differences between control and treated animals was evaluated using Student's t test. […]

HDM2 3′UTR = test: Luciferase reporter assay, pGL3-MDM2-3'UTR; assay type: cell-based, human; conditions: MM1s cells, construct containing all MREs
Description: FIG. 4G: miRNAs predicted to interact with HDM2 gene in several consensus binding sites (x) at its 3′-UTR, according to “in silico” RNA-22 prediction software. Luciferase assay showing decreased luciferase activity in cells co-transfected with pGL3-MDM2-3′UTR and miR-192, miR-194, miR-215 and Scr sequence. See also FIG. 18. All experiments were performed in triplicate ±SD.
To verify that HDM2 is a direct target of miR-192, miR-194 and miR-215, HDM2 3′UTR containing all MREs (˜4K), was cloned into pGL3 basic construct downstream of the luciferase open reading frame (FIG. 4D). This reporter construct was used to transfect the highly transfectable MM1s cells that express the endogenous miRs following up-modulated p53 expression.
MM1s cells were cotransfected with 1 μg of pGL3 firefly luciferase reporter vector, 0.1 μg of the phRL-SV40 control vector (Promega), and 100 nM miRNA precursors (Ambion) using nucleoporation (LONZA) Cell Line Nucleofector Kit V. Firefly and Renilla luciferase activities were measured consecutively by using the Dual Luciferase Assay (Promega) 24 hr after transfection. Each reporter plasmid was transfected at least twice (on different days) and each sample was assayed in triplicate. […]

Substance | tumor burden (bioluminescence imaging) (GFP+/Luc+ MM1S cells) | bone marrow engraftment of MM1s (human CD-138+ cells by FACS) (GFP+/Luc+ MM1S cells) [%] | luciferase expression of HDM2 3′UTR reporter (HDM2 3′UTR)
miR-192: microRNA, p53-activated, down-regulated in MM; transfected as miRNA precursor (Ambion) or lentivector; SEQ ID NO:56 (CUGACCUAUGAAUUGACAGCC; listed as RNA, chemistry not given here; listed as Homo sapiens) | nearly nonexistent | 4±2 | significantly diminished
miR-215: microRNA, p53-activated, down-regulated in MM; transfected as miRNA precursor (Ambion) or lentivector; SEQ ID NO:58 (AUGACCUAUGAAUUGACAGAC; listed as RNA, chemistry not given here; listed as Homo sapiens) | nearly nonexistent | 2±2 | significantly diminished

Reference: patent US20130150430A1, “Methods for Impairing the P53/HDM2 Auto-Regulatory Loop in Multiple Myeloma Development Using mIR-192, mIR-194 and mIR-215” (THE OHIO STATE UNIVERSITY, priority 2011, published 2013)
